Measured values published in patent US6150385A, “1,3,4-thiadiazoles useful for the treatment of CMV infections” (Pharmacia & Upjohn Company, priority 1999, dated 2000).

molecular target: T1, HCMV polymerase (Human cytomegalovirus, UniProt P08546); experiment: HCMV polymerase assay (scintillation proximity assay); type: biochemical; conditions: percentage of inhibition at 25 μM concentration in CMV polymerase assay
T1 construct: made in house; host or cells: SF-9 insect cells infected with recombinant baculovirus
T1 sequence (P08546 whole entry): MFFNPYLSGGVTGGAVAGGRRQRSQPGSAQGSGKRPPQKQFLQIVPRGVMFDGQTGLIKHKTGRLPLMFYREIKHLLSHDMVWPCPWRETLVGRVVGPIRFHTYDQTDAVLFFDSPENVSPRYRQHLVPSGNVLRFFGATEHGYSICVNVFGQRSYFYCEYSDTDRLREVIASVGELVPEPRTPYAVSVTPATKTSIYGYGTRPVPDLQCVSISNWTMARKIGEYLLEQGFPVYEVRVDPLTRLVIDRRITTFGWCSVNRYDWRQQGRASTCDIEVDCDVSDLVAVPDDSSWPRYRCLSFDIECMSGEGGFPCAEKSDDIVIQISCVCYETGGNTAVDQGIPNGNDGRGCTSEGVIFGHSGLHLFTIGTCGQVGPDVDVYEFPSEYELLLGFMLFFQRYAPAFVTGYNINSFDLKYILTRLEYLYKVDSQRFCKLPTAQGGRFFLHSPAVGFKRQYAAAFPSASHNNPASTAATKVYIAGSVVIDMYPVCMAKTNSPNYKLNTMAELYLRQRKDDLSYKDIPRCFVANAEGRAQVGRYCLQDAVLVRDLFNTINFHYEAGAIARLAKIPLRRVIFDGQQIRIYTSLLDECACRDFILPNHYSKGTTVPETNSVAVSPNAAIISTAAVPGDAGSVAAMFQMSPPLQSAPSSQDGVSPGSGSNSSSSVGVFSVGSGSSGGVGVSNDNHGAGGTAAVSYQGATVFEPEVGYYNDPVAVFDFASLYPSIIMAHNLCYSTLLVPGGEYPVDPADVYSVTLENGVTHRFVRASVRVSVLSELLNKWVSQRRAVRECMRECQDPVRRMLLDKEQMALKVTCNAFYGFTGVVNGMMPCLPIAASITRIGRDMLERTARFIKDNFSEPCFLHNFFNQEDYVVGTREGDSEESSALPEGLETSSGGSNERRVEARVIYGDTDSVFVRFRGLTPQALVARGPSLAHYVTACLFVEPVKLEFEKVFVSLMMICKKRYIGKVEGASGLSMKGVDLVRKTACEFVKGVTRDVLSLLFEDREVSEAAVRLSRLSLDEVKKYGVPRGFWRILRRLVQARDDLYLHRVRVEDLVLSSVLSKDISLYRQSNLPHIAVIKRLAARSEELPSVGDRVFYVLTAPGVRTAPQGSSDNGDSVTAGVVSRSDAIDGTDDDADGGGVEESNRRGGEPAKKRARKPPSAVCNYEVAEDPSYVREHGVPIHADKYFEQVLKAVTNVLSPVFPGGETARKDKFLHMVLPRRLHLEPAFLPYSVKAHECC
Outline: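 Values are percent inhibition at 25 μM, measured by scintillation proximity after capture of biotinylated poly(dA)-oligo(dT) (6 nM) extended with 90 nM 3H-dTTP. Recombinant SF-9-derived enzyme reacted 30 min at 25 or 37 °C in HEPES pH 7.5/KCl/MgCl2/BSA buffer, ±2 mM CHAPS, before EDTA termination.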

Point of comparison: `O=C(CCCCCl)Nc1nnc(NCc2ccc(F)cc2)s1` [compound 321, 5-chloro-N-{5-[(4-fluorobenzyl)amino]-1,3,4-thiadiazol-2-yl}pentanamide], inhibition at 25 µM 33.2%. Against it:
- O=C(Nc1nnc(NCc2ccc(F)cc2)s1)c1cccc([N+](=O)[O-])c1 [compound 302, N-{5-[(4-fluorobenzyl)amino]-1,3,4-thiadiazol-2-yl}-3-nitrobenzamide] — higher, 34.8%
- COc1ccccc1C(=O)Nc1nnc(NCCc2c[nH]c3ccccc23)s1 [compound 303, N-(5-{[2-(1H-indol-3-yl)ethyl]amino}-1,3,4-thiadiazol-2-yl)-2-methoxybenzamide] — higher, 34.7%
- COc1ccccc1C(=O)Nc1nnc(NCC2CCCCC2)s1 [compound 304, N-{5-[(cyclohexylmethyl)amino]-1,3,4-thiadiazol-2-yl}-2-methoxybenzamide] — higher, 34.6%
- O=C(Nc1nnc(NCc2ccc3c(c2)OCO3)s1)c1ccc(F)cc1F [compound 305, N-{5-[(1,3-benzodioxol-5-ylmethyl)amino]-1,3,4-thiadiazol-2-yl}-2,4-difluorobenzamide] — higher, 34.5%
- O=C(Nc1nnc(NCC(c2ccccc2)c2ccccc2)s1)c1ccc([N+](=O)[O-])o1 [compound 306, N-{5-[(2,2-diphenylethyl)amino]-1,3,4-thiadiazol-2-yl}-5-nitro-2-furamide] — higher, 34.4%
- CC1(C)C2CC[C@@H](CNc3nnc(NC(=O)c4ccc(C#N)cc4)s3)C1C2 (stereo partly drawn) [compound 307, 4-cyano-N-[5-({[(2R)-6,6-dimethylbicyclo[3.1.1]hept-2-yl]methyl}amino)-1,3,4-thiadiazol-2-yl]benzamide] — higher, 34.2%
- O=C(Nc1nnc(NCCc2ccccc2)s1)c1ccc(Cl)cc1Cl [compound 308, 2,4-dichloro-N-[5-(phenethylamino)-1,3,4-thiadiazol-2-yl]benzamide] — higher, 34.2%
- CCSCCNc1nnc(NC(=O)c2ccc(Br)cc2)s1 [compound 309, 4-bromo-N-(5-{[2-(ethylsulfanyl)ethyl]amino}-1,3,4-thiadiazol-2-yl)benzamide] — higher, 34%
- COc1ccccc1C(=O)Nc1nnc(NC2CCCCCC2)s1 [compound 310, N-[5-(cycloheptylamino)-1,3,4-thiadiazol-2-yl]-2-methoxybenzamide] — higher, 34%
- NS(=O)(=O)c1ccc(CNc2nnc(NC(=O)c3ccc(Cl)c(Cl)c3)s2)cc1 [compound 311, N-(5-{[4-(aminosulfonyl)benzyl]amino}-1,3,4-thiadiazol-2-yl)-3,4-dichlorobenzamide] — higher, 33.9%
- CC1(C)C2CC[C@@H](CNc3nnc(NC(=O)CCCCCl)s3)C1C2 (stereo partly drawn) [compound 312, 5-chloro-N-[5-({[(2R)-6,6-dimethylbicyclo[3.1.1]hept-2-yl]methyl}amino)-1,3,4-thiadiazol-2-yl]pentanamide] — higher, 33.9%
- CCCCCCCC/C=C/CCCCCCCC(=O)Nc1nnc(NCc2ccc(Cl)c(Cl)c2)s1 [compound 313, (E)-N-{5-[(3,4-dichlorobenzyl)amino]-1,3,4-thiadiazol-2-yl}-9-octadecenamide] — higher, 33.9%
- CCOc1ccc2ccccc2c1C(=O)Nc1nnc(NC2CCC2)s1 [compound 314, N-[5-(cyclobutylamino)-1,3,4-thiadiazol-2-yl]-2-ethoxy-1-naphthamide] — higher, 33.8%
- O=C(CCCCCl)Nc1nnc(NCC2CCCCC2)s1 [compound 315, 5-chloro-N-{5-[(cyclohexylmethyl)amino]-1,3,4-thiadiazol-2-yl}pentanamide] — higher, 33.8%
- O=C(CCCCCl)Nc1nnc(NC2CCCCCC2)s1 [compound 316, 5-chloro-N-[5-(cycloheptylamino)-1,3,4-thiadiazol-2-yl]pentanamide] — higher, 33.6%
- CC(C)c1cc(C(C)C)c(C(=O)Nc2nnc(NCCc3c[nH]cn3)s2)c(C(C)C)c1 [compound 317, N-(5-{[2-(1H-imidazol-4-yl)ethyl]amino}-1,3,4-thiadiazol-2-yl)-2,4,6-triisopropylbenzamide] — higher, 33.6%
- CCOc1ccc2ccccc2c1C(=O)Nc1nnc(NCCSCC)s1 [compound 318, 2-ethoxy-N-(5-{[2-(ethylsulfanyl)ethyl]amino}-1,3,4-thiadiazol-2-yl)-1-naphthamide] — higher, 33.6%
- CC(C)(C)CNc1nnc(NC(=O)/C=C/c2ccccc2Cl)s1 [compound 319, (E)-3-(2-chlorophenyl)-N-[5-(neopentylamino)-1,3,4-thiadiazol-2-yl]-2-propenamide] — higher, 33.5%
- CC1(C)C2CC[C@@H](CNc3nnc(NC(=O)/C=C/c4ccccc4Cl)s3)C1C2 (stereo partly drawn) [compound 320, (E)-3-(2-chlorophenyl)-N-[5-({[(2R)-6,6-dimethylbicyclo[3.1.1]hept-2-yl]methyl}amino)-1,3,4-thiadiazol-2-yl]-2-propenamide] — higher, 33.5%
- O=C(/C=C/c1ccccc1Cl)Nc1nnc(NCCSc2ccccc2)s1 [compound 322, (E)-3-(2-chlorophenyl)-N-(5-{[2-(phenylsulfanyl)ethyl]amino}-1,3,4-thiadiazol-2-yl)-2-propenamide] — the same, 33.2%
- Cc1ccc(C(=O)Nc2nnc(NC3CCCCCC3)s2)cc1 [compound 323, N-[5-(cycloheptylamino)-1,3,4-thiadiazol-2-yl]-4-methylbenzamide] — lower, 33%
- O=C(Nc1nnc(NCCCn2ccnc2)s1)c1ccc(I)cc1 [compound 324, N-(5-{[3-(1H-imidazol-1-yl)propyl]amino}-1,3,4-thiadiazol-2-yl)-4-iodobenzamide] — lower, 32.9%
- O=C(CCCCCl)Nc1nnc(NCCCN2CCCC2=O)s1 [compound 325, 5-chloro-N-(5-{[3-(2-oxo-1-pyrrolidinyl)propyl]amino}-1,3,4-thiadiazol-2-yl)pentanamide] — lower, 32.8%
- O=C(/C=C/c1ccccc1)Nc1nnc(NCc2ccc(F)cc2)s1 [compound 326, (E)-N-{5-[(4-fluorobenzyl)amino]-1,3,4-thiadiazol-2-yl}-3-phenyl-2-propenamide] — lower, 32.7%
- COc1ccccc1C(=O)Nc1nnc(NCCc2ccccc2)s1 [compound 327, 2-methoxy-N-[5-(phenethylamino)-1,3,4-thiadiazol-2-yl]benzamide] — lower, 32.5%
- CCOc1ccc2ccccc2c1C(=O)Nc1nnc(NCCc2ccc(S(N)(=O)=O)cc2)s1 [compound 328, N-(5-{[4-(aminosulfonyl)phenethyl]amino}-1,3,4-thiadiazol-2-yl)-2-ethoxy-1-naphthamide] — lower, 32.4%
- O=C(/C=C/c1ccccc1)Nc1nnc(NCc2cccc3ccccc23)s1 [compound 329, (E)-N-{5-[(1-naphthylmethyl)amino]-1,3,4-thiadiazol-2-yl}-3-phenyl-2-propenamide] — lower, 32.4%
- O=C(Nc1nnc(NCCc2c[nH]cn2)s1)c1cc2ccccc2s1 [compound 330] — lower, 32.2%
- O=C(/C=C/c1ccccc1)Nc1nnc(NCCC(c2ccccc2)c2ccccc2)s1 [compound 331, (E)-N-{5-[(3,3-diphenylpropyl)amino]-1,3,4-thiadiazol-2-yl}-3-phenyl-2-propenamide] — lower, 32.1%
- CC(=O)NCCNc1nnc(NC(=O)c2c(C(C)C)cc(C(C)C)cc2C(C)C)s1 [compound 332, N-(5-{[2-(acetylamino)ethyl]amino}-1,3,4-thiadiazol-2-yl)-2,4,6-triisopropylbenzamide] — lower, 32%
- O=C(/C=C/c1ccccc1)Nc1nnc(NCc2ccc(Cl)c(Cl)c2)s1 [compound 333, (E)-N-{5-[(3,4-dichlorobenzyl)amino]-1,3,4-thiadiazol-2-yl}-3-phenyl-2-propenamide] — lower, 31.9%
- COc1ccccc1C(=O)Nc1nnc(NCc2cccc3ccccc23)s1 [compound 334, 2-methoxy-N-{5-[(1-naphthylmethyl)amino]-1,3,4-thiadiazol-2-yl}benzamide] — lower, 31.8%
- N#Cc1ccc(C(=O)Nc2nnc(NCCc3ccc(S(N)(=O)=O)cc3)s2)cc1 [compound 335, N-(5-{[4-(aminosulfonyl)phenethyl]amino}-1,3,4-thiadiazol-2-yl)-4-cyanobenzamide] — lower, 31.7%
- CCCCCCCC/C=C/CCCCCCCC(=O)Nc1nnc(NCCc2ccc(S(N)(=O)=O)cc2)s1 [compound 336, (E)-N-(5-{[4-(aminosulfonyl)phenethyl]amino}-1,3,4-thiadiazol-2-yl)-9-octadecenamide] — lower, 31.6%
- O=C(Nc1nnc(NCCc2cccs2)s1)c1cccc([N+](=O)[O-])c1 [compound 337, 3-nitro-N-(5-{[2-(2-thienyl)ethyl]amino}-1,3,4-thiadiazol-2-yl)benzamide] — lower, 31.6%
- CC(C)(C)OC(=O)CCNc1nnc(NC(=O)c2c(Cl)cccc2Cl)s1 [compound 338, tert-butyl 3-({5-[(2,6-dichlorobenzoyl)amino]-1,3,4-thiadiazol-2-yl}amino)propanoate] — lower, 31.6%
- O=C(Nc1nnc(NCCNc2ccccc2)s1)c1ccc(I)cc1 [compound 339, N-{5-[(2-anilinoethyl)amino]-1,3,4-thiadiazol-2-yl}-4-iodobenzamide] — lower, 31.5%
- CC(C)(C)OC(=O)CCNc1nnc(NC(=O)c2ccc3c(c2)C(=O)OC3=O)s1 [compound 340, tert-butyl 3-[(5-{[(1,3-dioxo-1,3-dihydro-2-benzofuran-5-yl)carbonyl]amino}-1,3,4-thiadiazol-2-yl)amino]propanoate] — lower, 31.5%
- O=C(Nc1nnc(NCc2ccco2)s1)c1ccc(I)cc1 [compound 341, N-{5-[(2-furylmethyl)amino]-1,3,4-thiadiazol-2-yl}-4-iodobenzamide] — lower, 31.3%
- CCCCCCCCCCCNc1nnc(NC(=O)/C=C/c2ccccc2)s1 [compound 342, (E)-3-phenyl-N-[5-(undecylamino)-1,3,4-thiadiazol-2-yl]-2-propenamide] — lower, 31.2%
